This note sets out measurements from ChEMBL document CHEMBL2390939, “Synthesis and in vitro cytotoxicity of andrographolide-19-oic acid analogues as anti-cancer agents” (Bioorg Med Chem Lett, 2013).

One experiment concerns MCF7. Kind of experiment: Cytotoxicity against human MCF7 cells assessed as growth inhibition after 72 hrs by MTS assay. The class given is functional, cell-based. Particulars: MCF7, 72 h.
Experiment [1] has as its system HCT-116. Kind of experiment: Cytotoxicity against human HCT116 cells assessed as growth inhibition after 72 hrs by MTS assay. Particulars: HCT-116, 72 h. The class given is functional, cell-based.
The test system of experiment [2] is HCT-116. Kind of experiment: Ratio of cis-platin IC50 to compound IC50 for growth inhibition of human HCT116 cells. The class given is functional.

The structures appear in SMILES notation. Where only a bound is given, the exact number is not on record here.

Consider `C=C1CC[C@H]2[C@@](C)(CC[C@@H](OC(C)=O)[C@@]2(C)C(=O)OC)[C@@H]1C/C=C1/C(=O)OC[C@H]1OC(=O)/C=C/c1ccc(OC)cc1`, for which the IC50 in the experiment with MCF7 was determined as 14.5 µM; with HCT-116 [1] it was 2.78 µM.
Regarding `C=C1CC[C@H]2[C@@](C)(CC[C@@H](OC(C)=O)[C@@]2(C)C(=O)O)[C@@H]1C/C=C1/C(=O)OC[C@H]1OC(=O)/C=C/c1ccc(OC)cc1`, the IC50 with MCF7 stood at 33.9 µM; with HCT-116 [1] it was 9.73 µM.
For `C=C1CC[C@@H]2[C@](C)(CO)[C@H](O)CC[C@@]2(C)[C@@H]1C/C=C1/C(=O)OC[C@H]1O` [ANDROGRAPHOLIDE] the same measures were above 66 µM and 23.9 µM.
Consider `C=C1CC[C@H]2[C@@](C)(CC[C@@H](O)[C@@]2(C)C(=O)O)[C@@H]1C/C=C1/C(=O)OC[C@H]1OC(=O)c1ccccc1`, for which the IC50 in the experiment on MCF7 is above 40.2 µM; with HCT-116 [1], 13.8 µM.
With `C=C1CC[C@H]2[C@@](C)(CC[C@@H](OC(C)=O)[C@@]2(C)C(=O)OCc2ccccc2)[C@@H]1C/C=C1/C(=O)OC[C@H]1OC(=O)c1ccccc1`, the “Ratio IC50” value in the experiment on HCT-116 [2] was 11. Further, the IC50 with MCF7 worked out at 8.37 µM; in the experiment with HCT-116 [1] it was 1.18 µM.
As to `C=C1CC[C@H]2[C@@](C)(CC[C@@H](OC(C)=O)[C@@]2(C)C(=O)O)[C@@H]1C/C=C1/C(=O)OC[C@H]1OC(C)=O`, the IC50 is above 4.1 µM in the experiment with MCF7 and 2.19 µM in the experiment on HCT-116 [1].
The like results for `C=C1CC[C@H]2[C@@](C)(CC[C@@H](OC(C)=O)[C@@]2(C)C(=O)OCc2ccccc2)[C@@H]1C/C=C1/C(=O)OC[C@H]1OC(C)=O` were, in that order, 6.28 µM and 1.07 µM.
The like results for `C=C1CC[C@H]2[C@@](C)(CC[C@@H](OC(C)=O)[C@@]2(C)C(=O)OCc2ccccc2)[C@@H]1C/C=C1/C(=O)OC[C@H]1OC(=O)/C=C/c1ccc(OC)cc1` were, in that order, 6.13 µM and 2.83 µM.
Consider `C=C1CC[C@H]2[C@@](C)(CC[C@@H](OC(C)=O)[C@@]2(C)C(=O)OC)[C@@H]1C/C=C1/C(=O)OC[C@H]1OC(=O)c1ccccc1`, for which the results for the IC50 in the experiment on MCF7 and in the experiment on HCT-116 [1] were 10.6 µM and 3.01 µM, respectively.
For `C=C1CC[C@H]2[C@@](C)(CC[C@@H](O)[C@@]2(C)C(=O)O)[C@@H]1C/C=C1/C(=O)OC[C@H]1OC(=O)/C=C/c1ccc(OC)cc1` the same measures were 8.86 µM and 1.92 µM.
For the molecule `C=C1CC[C@H]2[C@@](C)(CC[C@@H](OC(C)=O)[C@@]2(C)C(=O)OC)[C@@H]1C/C=C1/C(=O)OC[C@H]1OC(C)=O`, the IC50 with MCF7 was 6.4 µM; with HCT-116 [1], 2.02 µM.
The like results for `C=C1CC[C@H]2[C@@](C)(CC[C@@H](OC(C)=O)[C@@]2(C)C(=O)O)[C@@H]1C/C=C1/C(=O)OC[C@H]1OC(=O)c1ccccc1` were, in that order, 38.2 µM and 17.8 µM.
As to `C=C1CC[C@H]2[C@@](C)(CC[C@@H](O)[C@@]2(C)C(=O)O)[C@@H]1C/C=C1/C(=O)OC[C@H]1OC(C)=O`, the IC50 in the experiment with MCF7 is 33.3 µM; with HCT-116 [1], 25.2 µM.
